Positions count from the first letter of the chain named. “And” between values parts separate entries of the source, which are not always exact repeats. Equal values may be shown once.
Legend:
[1] = molecular target: T1, human PNPO F48A/E50L/R258L variant (Homo sapiens, UniProt Q9NVS9, E50L/F48A/R258L); assay: PLP binding by DSF, triple variant; conditions: 50 mM Na-HEPES pH 7.6, 2 μM enzyme
T1 construct: a main form corresponding to the entire protein; made in house; host or cells: E. coli BL21(DE3)
T1 sequence (Q9NVS9 1-261 F48A/E50L/R258L): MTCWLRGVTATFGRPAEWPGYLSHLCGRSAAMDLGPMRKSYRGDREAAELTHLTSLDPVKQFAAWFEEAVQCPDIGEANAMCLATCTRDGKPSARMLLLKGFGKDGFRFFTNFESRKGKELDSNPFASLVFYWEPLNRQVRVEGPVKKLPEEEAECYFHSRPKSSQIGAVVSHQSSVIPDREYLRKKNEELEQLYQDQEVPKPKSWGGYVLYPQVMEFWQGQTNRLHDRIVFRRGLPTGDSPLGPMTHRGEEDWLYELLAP
Source text: PLP binding to PNPO can be detected and quantitatively measured using differential scanning fluorimetry (DSF) and also by measuring FMN fluorescence changes. We had previously attributed DSF changes to PLP binding at the active site, while FMN fluorescence changes were attributed to PLP binding at the allosteric site (Barile et al., [2019], [2020]). Previous experiments carried out with the PNPO R161C variant, affecting a residue that is essential for substrate binding and catalysis (and therefore also for PLP binding at the active site), confirms that DSF measurements only report PLP binding at the active site (Barile et al., [2021]; Table 1). […] We expected to observe no FMN fluorescence changes upon titration of the variants with PLP. However, this was not the case, and the dissociation constant values obtained by observing the FMN fluorescence emission were only up to threefold larger in the variants with respect to wild type PNPO (Figure 3). […] To check the second possibility, we measured intrinsic fluorescence changes of wild type and variant apo‐forms (i.e., without FMN) upon PLP titration. […]
FIGURE 2 DSF measurements with F48A (a), F48A/E50L/R258L (b), F48A/E50L/H248N/R258L (c), and 1‐31del PNPO variants in the presence of different PLP concentrations. Upper panels: Fluorescence change is expressed as fractional variation as a function of temperature. […]

[2] = molecular target: human PNPO R161C variant (holo-enzyme); design: method as in Barile et al. ([2021]); conditions: FMN fluorescence changes, ref Barile et al. ([2021]), read-out: PLP binding KD^FLUO; cited from earlier work
human PNPO wild type = molecular target: T2, human PNPO wild type (Homo sapiens, UniProt Q9NVS9); assay: PLP inhibition kinetics of PNP oxidation, wild type; format: biochemical; design: a main form corresponding to the entire protein; made in house; host or cells: E. coli BL21(DE3); conditions: Na-HEPES pH 7.6, 2 μM enzyme, PLP 0–16 μM
T2 sequence (Q9NVS9 1-261): T1 sequence (Q9NVS9 1-261 F48A/E50L/R258L) with A48F, L50E, L258R
Procedure: This is a general inhibition mechanism that takes into account the possibility of PLP binding to both the active and allosteric sites. PLP binding at the active site gives a complete, competitive inhibition, whereas PLP binding at the allosteric site yields a substrate‐enzyme‐PLP ternary complex that is still catalytically active, although k CAT is reduced by a coefficient whose value is around 0.15. A thorough inhibition kinetic characterization was carried out with the wild type, F48A, F48A/E50L/R258L, and F48A/E50L/H248N/R258L PNPO forms, so as to evaluate the effect of the variations on the allosteric properties of the enzyme. The initial velocity of PNP conversion into PLP was measured in Na‐HEPES buffer (in which PLP is allowed to accumulate) by varying substrate concentration at different, fixed exogenous PLP concentrations, using 2 μM enzyme. A series of saturation curves were obtained that were used to fit the Michaelis–Menten equation (Figure 5), acquiring apparent V MAX and K M values as a function of PLP concentration. […]
FIGURE 5 Characterization of PLP inhibition. Upper panels: The initial velocity of the reaction was measured with 2 μM wild type (a), and the F48A (b), F48A/E50L/R258L (c), and F48A/E50L/H248N/R258L (d) PNPO variants, varying PNP concentration while keeping exogenous PLP fixed at different concentrations (0, 0.25, 0.5, 1, 2, 4, 8, and 16 μM). […]

Kd [1]: 6.28 µM and 6.3 µM
Structure (SMILES): Cc1ncc(COP(=O)(O)O)c(C=O)c1O [PLP, pyridoxal 5′‐phosphate]
Kd [2]: 0.53 ± 0.08 µM
type of inhibition of PNP oxidation by PLP (human PNPO wild type): typical hyperbolic increase of 1/V MAX and the parabolic increase of K M/V MAX

Reference: article PMC10804683, “Identification of the pyridoxal 5′‐phosphate allosteric site in human pyridox(am)ine 5′‐phosphate oxidase” (Protein Science : A Publication of the Protein Society, 2024)
